This is an account of results in publication PMC11124341, “4-Hydroxybenzoic Acid-Based Hydrazide–Hydrazones as Potent Growth Inhibition Agents of Laccase-Producing Phytopathogenic Fungi That Are Useful in the Protection of Oilseed Crops” (Molecules, 2024).

≈ marks a conversion by molar mass, not a printed value.

What is called Ki is the equilibrium dissociation constant of an inhibitor or competing ligand from its target. A word on the inhibition: it is the drop in the measured response relative to a control, in per cent. The term IC50 denotes the point on the concentration scale where inhibition reaches its midpoint.

Series [1] deals with Sclerotinia sclerotiorum strain FSc10. Nature of the series: In vitro antifungal activity, mycelial growth inhibition on PDA medium. The format is cell-based. As to conditions: for fungal growth inhibition, S. sclerotiorum / inhibition of growth at 50 µg/mL: screening at basal 50 µg/mL, PDA medium, mean ± SD of three determinations; for inhibition of growth at 50 µg/mL: read-out: fungal growth inhibition, S. sclerotiorum; for IC50: log-logistic model, 0–50 µg/mL range, read-out: IC50 against Sclerotinia sclerotiorum (Ss).

Series [2] deals with Botrytis cinerea strain FBc05. The description is as above. As to conditions: for fungal growth inhibition, B. cinerea / inhibition of growth at 50 µg/mL: screening at basal 50 µg/mL, PDA medium, mean ± SD of three determinations; for inhibition at 6.25 µg/mL / inhibition at 25 µg/mL / inhibition at 50 µg/mL / IC50 / inhibition of growth at 50 µg/mL: Botrytis cinerea, FBC05; for inhibition at 6.25 µg/mL / inhibition at 25 µg/mL / inhibition at 50 µg/mL: fungicidal profile, read-out: B. cinerea inhibition; for IC50: log-logistic model, 0–50 µg/mL range, read-out: IC50 against Botrytis cinerea (Bc); for inhibition of growth at 50 µg/mL: read-out: fungal growth inhibition, B. cinerea. The format is cell-based.

The subject of series [3] is Cerrena unicolor strain no. 139. The series is described as above. The series is classed as cell-based. As to conditions: for inhibition of growth at 50 µg/mL / inhibition at 50 µg/mL / IC50: Cerrena unicolor, NO.139; for inhibition of growth at 50 µg/mL: read-out: fungal growth inhibition, C. unicolor; for inhibition at 50 µg/mL: fungicidal profile, read-out: C. unicolor inhibition; for IC50: log-logistic model, 0–50 µg/mL range, read-out: IC50 against Cerrena unicolor (Cu). In outline:
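Compounds in PDA plates (ethanol or DMSO co-solvent, 0.1–1.0% v/v), screened at 50 µg/mL, selected ones at 0–50 µg/mL; 5 mm mycelial plug placed centrally, 22 °C dark until co-solvent control covered (3 d B. cinerea, S. sclerotiorum; 7 d C. unicolor). IC50 from nonlinear dose–response fit, only where growth fell >50%.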

Series [4] deals with sunflower (Helianthus annuus L.) seeds. Nature of the series: Phytotest 1: phytotoxicity, seed germination and root growth. The series is classed as in vivo. As to conditions: 50 µg/mL; versus water–ethanol 0.5% (v/v) control; <90% inhibition, 90–110% no effect, >110% stimulation. An excerpt: In the experiments with plants, two aspects were taken under consideration: (1) phytotoxicity, which determined the toxicity of the hydrazide–hydrazones on seed germination and root growth, and (2) study on the behavior of seeds in the presence of the tested hydrazide–hydrazones and pathogens producing laccase (B. cinerea and S. sclerotiorum). The non-coated seeds of Linum usitatissimum, Helianthus annuus, and Brassica napus var. napus were provided by the Institute of Soil Science and Plant Cultivation, National Research Institute in Pulawy, Department of Weed Science and Tillage Systems, and Institute of Technology and Life Sciences–National Research Institute Falenty (Poland). Both phytotests were performed based on direct-contact microbiotests following the protocol recommended by the manufacturer (PhytotestkitTM, MicroBio Tests, Mariakerke, Belgium) with the authors’ modifications.
The main phytotest equipment (Tigret, Warsaw, Poland) and general methods are described as follows. Test plates (21 × 15.5 × 0.8 cm) provide optimal moisture and enable observation of seed germination and data reading at the end of the test. A single plate is made of polyvinylchloride and composed of both a transparent bottom and a covering part that are stuck together by a set of press buttons. […] Such prepared wet support was covered with a black filter paper that soaked the solution and was applied for further testing.
In the assay of phytotoxicity (1), the seeds of three dicota plants were used, namely ten seeds of flax or rapeseed and six seeds of sunflower. The seeds were transferred directly on the filter surface by placing them along the line at approximately 1 cm from the ridge at equal distances. Then, the seeds on the filter surface were covered with a covering part and placed in a holder.
All test plates were put vertically in a special incubator to allow free germination and growth of roots at 25 °C through 5 days in the dark. The test was performed in triplicate for each test plant. The results were expressed as the germination index values (GI, Equation (2)) concerning the plant growth controls in water–ethanol solution for (1). […] The GI was calculated from the formula and categorized as an inhibition for GI values < 90%, as stimulation > 110%, and between 90 and 110% as non-toxic/no effect as proposed in the literature. (2) GI,%=Gs×Ls/Gc×Lc×100% where Gs is seed germination (%), Ls is root elongation (mm) for the test plate, and Gc and Lc are corresponding values for the control plates. Gc was calculated as the proportion of germinated seeds in the test in relation to the number of germinated seeds in the control. The control was the representative number of seeds that germinated on a medium with 0.5% (v/v) of ethanol.

The target of series [5] is laccase from Trametes versicolor. As to conditions: read-out: Laccase inhibition, Ki; cited from earlier work.
Setting [6] is: screening at basal 50 µg/mL, PDA medium, mean ± SD of three determinations.
[7] abbreviates: Sclerotinia sclerotiorum, FSC10.
[8] abbreviates: Sclerotinia sclerotiorum, FSC10, fungicidal profile, read-out: S. sclerotiorum inhibition.

Consider `O=C(N/N=C/c1cc(O)ccc1O)c1ccc(O)cc1` [compound 13], for which, in series [1], the “fungal growth inhibition, S. sclerotiorum” value is recorded as “n.o”. Moreover, the “fungal growth inhibition, B. cinerea” value in series [2] is reported as “n.o”. The “fungal growth inhibition, C. unicolor” value in series [3] (setting [6]) is reported as “n.o”. The “Germination index (GI), sunflower, test 1” value in series [4] is on record as 87%.

`COc1cc(/C=N/NC(=O)c2ccc(O)cc2)ccc1O` [compound 17]: the inhibition of growth at 50 µg/mL in series [1] (setting [7]) turned out to be 7.3 ± 2.1%; in series [3] (setting [6]) it was 11.9 ± 0.8%. For the same compound, the “fungal growth inhibition, B. cinerea” value in series [2] is given as “n.o”. In series [5], the Ki is 251 µM.

For the compound `CC(C)(C)c1cccc(/C=N/NC(=O)c2ccc(O)cc2)c1O` [compound 18], in series [1] (setting [8]), the inhibition at 6.25 µg/mL is 70.6 to 87.6% and the inhibition at 12.5 µg/mL was found to be 96.3%. Besides, in series [1] (setting [7]), the IC50 came to 1.8 mg/L (≈ 5.76 µM) and the inhibition of growth at 50 µg/mL was found to be 97.1 ± 1.1%. Further, in series [2], the inhibition at 6.25 µg/mL turned out to be 20.2%, the inhibition at 25 µg/mL was 56.4%, the inhibition at 50 µg/mL was determined as 64.7% and the IC50 was determined as 20 mg/L (≈ 64 µM). In addition, the inhibition of growth at 50 µg/mL in series [2] was 82.1 ± 3.1%. In series [3], the inhibition at 50 µg/mL turned out to be 76.5% and the IC50 is 18.3 mg/L (≈ 58.6 µM). Besides, the inhibition of growth at 50 µg/mL in series [3] (setting [6]) worked out at 85.9 ± 2.1%. Besides, the Ki in series [5] was 24 µM. The “Germination index (GI), sunflower, test 1” value in series [4] is given as “no effect”.

Turning to `O=C(N/N=C/c1cccc(-c2ccccc2)c1O)c1ccc(O)cc1` [compound 19], in series [1] (setting [7]), the concentration for half-maximal inhibition (IC50) turned out to be 69.9 mg/L (≈ 210 µM) and the inhibition of growth at 50 µg/mL was 50.6 ± 5.5%. In series [2], the inhibition at 6.25 µg/mL worked out at 30.1%, the inhibition at 25 µg/mL turned out to be 70.1%, the inhibition at 50 µg/mL is 74.1% and the IC50 turned out to be 13.9 mg/L (≈ 41.8 µM). Also, in series [2], the inhibition of growth at 50 µg/mL is 73.5 ± 3.3%. Moreover, in series [3], the inhibition at 50 µg/mL worked out at 70.5% and the IC50 came out at 20.3 mg/L (≈ 61.1 µM). In addition, in series [3] (setting [6]), the inhibition of growth at 50 µg/mL was 71.4 ± 2.1%. The Ki in series [5] was 25.3 µM. The “Germination index (GI), sunflower, test 1” value in series [4] is “no effect”.

Consider `Cc1cc(/C=N/NC(=O)c2ccc(O)cc2)c(O)c(CO)c1` [compound 25], for which, in series [1], the “fungal growth inhibition, S. sclerotiorum” value is recorded as “n.o”. Further, the inhibition of growth at 50 µg/mL in series [2] worked out at 2.8 ± 1.9%; in series [3] (setting [6]), 70.1 ± 1.8%. The Ki in series [5] was at least 1000 µM. In addition, the “Germination index (GI), sunflower, test 1” value in series [4] is reported as “non-toxic”.

`CC(C)(C)c1cc(/C=N/NC(=O)c2ccc(O)cc2)c(O)c(C(C)(C)C)c1` [compound 27]: the inhibition at 6.25 µg/mL in series [1] (setting [8]) turned out to be 82.9%. Moreover, the inhibition at 50 µg/mL in series [1] (Sclerotinia sclerotiorum, FSC10, fungicidal profile, 50 µg/mL, read-out: S. sclerotiorum inhibition) was determined as 93.1%. For the same compound, the IC50 in series [1] (setting [7]) came to 0.5 mg/L (≈ 1.36 µM); in series [3], 2190 mg/L (≈ 5950 µM). The inhibition of growth at 50 µg/mL in series [1] (setting [7]) was found to be 85.5 ± 3.2%; in series [2] it was 23.4 ± 2.7%; in series [3] (setting [6]) it was 42.8 ± 2.2%. The inhibition constant Ki in series [5] was 17.9 µM. Also, in series [4], the “Germination index (GI), sunflower, test 1” value was 82%.

On to `Cc1cc(/C=N/NC(=O)c2ccc(O)cc2)c(O)c(C(C)(C)C)c1` [compound 30], for which, in series [1] (setting [8]), the inhibition at 6.25 µg/mL lay in the range of 70.6 to 87.6% and the inhibition at 12.5 µg/mL was found to be 98.7%. In addition, in series [1] (setting [7]), the IC50 came out at 0.8 mg/L (≈ 2.45 µM) and the inhibition of growth at 50 µg/mL was determined as 96.8 ± 2.2%. For the same compound, in series [2], the half-inhibitory concentration (IC50) turned out to be 62.5 mg/L (≈ 191 µM) and the inhibition of growth at 50 µg/mL amounted to 76.2 ± 2.2%. Besides, in series [3], the inhibition at 50 µg/mL was determined as 90.5% and the IC50 was 13.5 mg/L (≈ 41.4 µM). In series [3] (setting [6]), the inhibition of growth at 50 µg/mL is 89.8 ± 0.4%. In series [5], the inhibition constant (Ki) is 26.4 µM. Also, in series [4], the “Germination index (GI), sunflower, test 1” value was 67%.
